Measurements published in patent US20260053932A1, “COMPOUNDS AND METHODS FOR THE TARGETED DEGRADATION OF ANDROGEN RECEPTOR AND ASSOCIATED METHODS OF USE” (Arvinas Operations, Inc., priority 2020, published 2026).

system: androgen receptor (AR) in LNCaP and/or VCaP cells; test: Androgen Receptor ELISA assay (AR degradation); type: cell-based; conditions: LNCaP and/or VCaP cells; 5 hours incubation; media with R1881; read-out: DC50 Code* (degradation of AR ELISA)
Summary of the method: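 VCaP cells grown ≥3 days, then treated 5 h with compound in media containing 1 nM R1881 (10× stock). Cells lysed and AR quantified by sandwich ELISA (mouse AR detection Ab, HRP anti-mouse, TMB). DC50 and Dmax derived from AR degradation.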

COc1cc(O[C@H]2CC[C@H](NC(=O)c3cnc(N4CCC(CN(C(C)C)[C@H]5CC[C@H](Oc6ccc7c(c6)CN(C6CCC(=O)NC6=O)C7=O)CC5)CC4)cn3)CC2)ccc1C#N (stereo partly drawn) [Compound 19, N-((1r,4r)-4-(4-cyano-3-methoxyphenoxy)cyclohexyl)-5-(4-((((1r,4r)-4-((2-(2,6-dioxopiperidin-3-yl)-1-oxoisoindolin-5-yl)oxy)cyclohexyl) (isopropyl)amino)methyl)piperidin-1-yl)pyrazine-2-carboxamide] and COc1cc(O[C@H]2CC[C@H](NC(=O)c3cnc(N4CC(CN(C(C)C)[C@H]5CC[C@H](Oc6ccc7c(c6)C(=O)N(C6CCC(=O)NC6=O)C7=O)CC5)C4)cn3)CC2)ccc1C#N (stereo partly drawn) [Compound 22, N-((1r,4r)-4-(4-cyano-3-methoxyphenoxy)cyclohexyl)-5-(3-((((1r,4r)-4-((2-(2,6-dioxopiperidin-3-yl)-1,3-dioxoisoindolin-5-yl)oxy)cyclohexyl) (isopropyl)amino)methyl)azetidin-1-yl)pyrazine-2-carboxamide] cannot be ordered by DC50: under 1 nM for the first, under 1 nM for the second.

CC(C)Oc1cc(N2CCN(CC3CCN(c4ccc(C(=O)N[C@H]5CC[C@H](Oc6ccc(C#N)c(Cl)c6)CC5)nn4)CC3)CC2)cc2c1C(=O)N(C1CCC(=O)NC1=O)C2=O (stereo partly drawn) [Compound 40, N-((1r,4r)-4-(3-chloro-4-cyanophenoxy)cyclohexyl)-6-(4-((4-(2-(2,6-dioxopiperidin-3-yl)-7-isopropoxy-1,3-dioxoisoindolin-5-yl)piperazin-1-yl)methyl)piperidin-1-yl)pyridazine-3-carboxamide] and COc1cc(O[C@H]2CC[C@H](NC(=O)c3cnc(N4CCC(CN(C(C)C)[C@H]5C[C@H](Oc6cc(OC)c7c(c6)C(=O)N(C6CCC(=O)NC6=O)C7=O)C5)CC4)cn3)CC2)ccc1C#N (stereo partly drawn) [Compound 38, N-((1r,4r)-4-(4-cyano-3-methoxyphenoxy)cyclohexyl)-5-(4-((((1r,3r)-3-((2-(2,6-dioxopiperidin-3-yl)-7-methoxy-1,3-dioxoisoindolin-5-yl)oxy)cyclobutyl) (isopropyl)amino)methyl)piperidin-1-yl)pyrazine-2-carboxamide] cannot be ordered by DC50: under 1 nM for the first, under 1 nM for the second.

COc1cc(O[C@H]2C[C@H](N(CC3CCN(c4ncc(C(=O)NC5CC6CC(Oc7cc(C)c(C#N)c(C)c7)CC6C5)cn4)CC3)C(C)C)C2)cc2c1C(=O)N(C1CCC(=O)NC1=O)C2=O (stereo partly drawn) [Compound 2, N-(5-(4-cyano-3,5-dimethylphenoxy)octahydropentalen-2-yl)-2-(4-((((1r,3r)-3-((2-(2,6-dioxopiperidin-3-yl)-7-methoxy-1,3-dioxoisoindolin-5-yl)oxy)cyclobutyl) (isopropyl)amino)methyl)piperidin-1-yl)pyrimidine-5-carboxamide] and COc1cc(O[C@@H]2CC[C@H](NC(=O)c3cnc(N4CCC(CN(C(C)C)[C@H]5C[C@H](Oc6ccc7c(c6)C(=O)N(C6CCC(=O)NC6=O)C7=O)C5)CC4)cn3)C2)ccc1C#N (stereo partly drawn) [Compound 11, N-((1S,3R)-3-(4-cyano-3-methoxyphenoxy)cyclopentyl)-5-(4-((((1r,3S)-3-((2-(2,6-dioxopiperidin-3-yl)-1,3-dioxoisoindolin-5-yl)oxy)cyclobutyl) (isopropyl)amino)methyl)piperidin-1-yl)pyrazine-2-carboxamide] cannot be ordered by DC50: over 100 nM for the first, over 100 nM for the second.

same assay, conditions: degradation of AR ELISA in LNCaP and/or VCaP cells; Table 2C; read-out: DC50 Code*

COc1cc(O[C@H]2C[C@H](N(C)CC3CCN(c4ccc(C(=O)N[C@H]5C(C)(C)[C@H](Oc6cc(C)c(C#N)c(C)c6)C5(C)C)cc4)CC3)C2)cc2c1C(=O)N(C1CCC(=O)NC1=O)C2=O (mixture of isomers) [compound 191, rac-N-((1r,3r)-3-(4-cyano-3,5-dimethylphenoxy)-2,2,4,4-tetramethylcyclobutyl)-4-(4-((((1r,3r)-3-((2-(2,6-dioxopiperidin-3-yl)-7-methoxy-1,3-dioxoisoindolin-5-yl)oxy)cyclobutyl) (methyl)amino)methyl)piperidin-1-yl)benzamide] and COc1cc(O[C@H]2C[C@H](N(CC3CCN(c4ncc(C(=O)N[C@H]5C(C)(C)[C@H](Oc6cc(C)c(C#N)c(C)c6)C5(C)C)cn4)CC3)C(C)=O)C2)cc2c1C(=O)N(C1CCC(=O)NC1=O)C2=O (stereo partly drawn) [compound 81, N-((1r,3r)-3-(4-cyano-3,5-dimethylphenoxy)-2,2,4,4-tetramethylcyclobutyl)-2-(4-((N-((1r,3r)-3-((2-(2,6-dioxopiperidin-3-yl)-7-methoxy-1,3-dioxoisoindolin-5-yl)oxy)cyclobutyl)acetamido)methyl)piperidin-1-yl)pyrimidine-5-carboxamide] cannot be ordered by DC50: under 1 nM for the first, under 1 nM for the second.

[2H]C([2H])([2H])Oc1cc(O[C@H]2C[C@H](N(CC3CCN(c4ccc(C(=O)N[C@H]5C(C)(C)[C@H](Oc6ccc(C#N)c(OC)c6)C5(C)C)cc4)CC3)C(C)C)C2)cc2c1C(=O)N(C1CCC(=O)NC1=O)C2=O (mixture of isomers) [compound 159, rac-N-((1r,3r)-3-(4-cyano-3-methoxyphenoxy)-2,2,4,4-tetramethylcyclobutyl)-4-(4-((((1r,3r)-3-((2-(2,6-dioxopiperidin-3-yl)-7-(methoxy-d3)-1,3-dioxoisoindolin-5-yl)oxy)cyclobutyl) (isopropyl)amino)methyl)piperidin-1-yl)benzamide] and COCCN(CC1CCN(c2ccc(C(=O)N[C@H]3C(C)(C)[C@H](Oc4ccc(C#N)c(OC)c4)C3(C)C)nn2)CC1)[C@H]1C[C@H](Oc2cc(OC)c3c(c2)C(=O)N(C2CCC(=O)NC2=O)C3=O)C1 (stereo partly drawn) [compound 100, N-((1r,3r)-3-(4-cyano-3-methoxyphenoxy)-2,2,4,4-tetramethylcyclobutyl)-6-(4-((((1r,3r)-3-((2-(2,6-dioxopiperidin-3-yl)-7-methoxy-1,3-dioxoisoindolin-5-yl)oxy)cyclobutyl)(2-methoxyethyl)amino)methyl)piperidin-1-yl)pyridazine-3-carboxamide] cannot be ordered by DC50: under 1 nM for the first, under 1 nM for the second.

First: CC(C)N(CC1CCN(c2cnc(C(=O)N[C@H]3C(C)(C)[C@H](Oc4ccc(C#N)c(Cl)c4)C3(C)C)cn2)CC1)[C@H]1C[C@H](Oc2cccc3c2CN(C2CCC(=O)NC2=O)C3=O)C1 (mixture of isomers) [compound 208, rac-N-((1r,3r)-3-(3-chloro-4-cyanophenoxy)-2,2,4,4-tetramethylcyclobutyl)-5-(4-((((1r,3r)-3-((2-(2,6-dioxopiperidin-3-yl)-1-oxoisoindolin-4-yl)oxy)cyclobutyl) (isopropyl)amino)methyl)piperidin-1-yl)pyrazine-2-carboxamide]
Second: Cc1cc(O[C@H]2C(C)(C)[C@H](NC(=O)c3cnc(N4CC(CCN5CCC(Oc6ccc7c(c6)C(=O)N(C6CCC(=O)NC6=O)C7=O)CC5)C4)cn3)C2(C)C)cc(C)c1C#N (stereo partly drawn) [compound 143, N-((1r,3r)-3-(4-cyano-3,5-dimethylphenoxy)-2,2,4,4-tetramethylcyclobutyl)-5-(3-(2-(4-((2-(2,6-dioxopiperidin-3-yl)-1,3-dioxoisoindolin-5-yl)oxy)piperidin-1-yl)ethyl)azetidin-1-yl)pyrazine-2-carboxamide]
The DC50 of the first is lower: under 1 nM for the first, over 100 nM for the second.
